According to US4515951A, “Preparation of 5,6,7,7a-tetrahydro-4H-thieno[3,2-c]pyridin-2-one compounds” (Sanofi, priority 1980, dated 1985):
Where two headings read alike, the source gives them in different places.

Legend:
[1] = tested on: platelet aggregation by collagen; experiment: inhibiting action on platelet aggregation by collagen (COLLAGEN TEST), plasma of orally treated rats; type: in vivo, Wistar rats; conditions: Rattus norvegicus, read-out: Percentage inhibition of platelet aggregation (collagen test)
Method: (§1) A sample of blood is taken from the jugular vein of Wistar rats, which have previously been treated with the compound to be tested. From this blood, which is citrate-treated and centrifuged, there is reconstituted a plasma containing 600,000±20,000 platelets per mm^3, which is employed in all the aggregation measurements.
(§2) 0.4 ml. of plasma is treated in a siliconised tube provided with a bar magnet which is also siliconised. The tube is introduced into an aggregometer connected to an apparatus with which variations in optical density can be recorded. When the light transmission has reached a stable value, 0.5 ml. of a solution containing […] of ADP (adenosine diphosphate)is introduced into the tube.
(§3) Platelet aggregation then causes an increase in light transmission, followed by a reduction in light transmission due to the subsequent disaggregation stage.
(§4) The maximum variation in optical density thus determined relative to that of a plasma free of platelets characterises the intensity of aggregation.
(§5) The measurements are carried out during the 2 hours which follow the taking of the blood sample, this sample being taken 3 hours after treatment with the derivative to be tested.
The ADP solution is replaced by a solution of collagen (extracted from cattle tendons).
(§6) Groups of 20 rats were used. Each group received a single dose of the compound to be tested, administered orally, the same compound being administered at different doses ranging from 5 mg./kg. to 100 mg./kg.
(§7) The results obtained are given in the following Tables II and III, which show the percentage inhibition of platelet aggregation obtained relative to the control experiment, 3 hours after treatment with the compound to be tested.

in vivo = conditions: mouse, iv
From the text: This study was concerned with the acute, chronic, sub-chronic and delayed toxicities.

[2] = tested on: platelet aggregation by ADP; experiment: inhibiting action on platelet aggregation by ADP (ADP TEST), plasma of orally treated rats; type: in vivo, Wistar rats; conditions: Rattus norvegicus; for inhibition at 5 mg/kg / inhibition at 12.5 mg/kg / inhibition at 25 mg/kg / inhibition at 50 mg/kg / inhibition at 100 mg/kg: read-out: Percentage inhibition of platelet aggregation (ADP test); for minimal effective dose: oral, rats, stated for the aggregation tests (ADP and collagen), read-out: dose at which significant (or similar) platelet aggregation inhibiting activity manifests itself
Method: as §1, §2, §3, §4, §5, §6, §7

experimental thrombosis = experiment: anti-thrombosis activity, experimental thrombosis caused by extracorporal circulation (Umetsu and Sonoi); type: in vivo, rats; conditions: for Average weight of the thrombi: control (5% gum arabic) 30.41
Method: This activity was studied by the experimental thrombosis method caused by extracorporal circulation, described by Umetsu and Sonoi (Thrombos. Haemost., 39, […]).
The left jugular vein and the right external carotid are exposed in rats anaesthetised by an intraperitoneal injection of pentobarbital. A shunt is provided which consists of a central catheter and two lateral catheters. A natural white silk thread is introduced into the central part and the circulation is restarted for 20 minutes. After stopping the circulation by clamping, the thread is gently withdrawn and weighed immediately.
Treatment was carried out for 48 hours, 24 hours and 2 hours before the start of the blood circulation in shunt.
The test compounds were administered orally to different groups of animals in the form of a suspension in 10 ml. of 5% gum arabic/kg., the doses used being 12.5 mg./kg., 25 mg./kg., 50 mg./kg., 100 mg./kg. and 200 mg./kg.

[3] = tested on: platelet aggregation induced by ADP; experiment: kinetic study of platelet aggregation induced by ADP (Born's nephelometric method, Bryston aggregometer), intraperitoneal; type: in vivo; conditions: rats
Method: A further experiment was carried out, relating to the kinetic study of the compounds of the present invention.
The blood sample is taken 10 minutes and 60 minutes after this administration and is centrifuged to obtain a plasma enriched in platelets.
The platelet aggregation in the plasma, induced by ADP is measured in a Bryston aggregometer, using Born's nephelometric method.

[4] = 12.5 mg/kg oral, 48, 24 and 2 hours before
[5] = 25 mg/kg oral, 48, 24 and 2 hours before
[6] = 50 mg/kg oral, 48, 24 and 2 hours before
[7] = 100 mg/kg oral, 48, 24 and 2 hours before
[8] = 5 mg/kg oral, single dose, 3 hours after treatment, relative to control
[9] = 12.5 mg/kg oral, single dose, 3 hours after treatment, relative to control
[10] = 25 mg/kg oral, single dose, 3 hours after treatment, relative to control
[11] = 50 mg/kg oral, single dose, 3 hours after treatment, relative to control
[12] = 100 mg/kg oral, single dose, 3 hours after treatment, relative to control

SMILES | inhibition at 5 mg/kg ([1]; po, 3 h) [%] | inhibition at 12.5 mg/kg ([1]; po, 3 h) [%] | inhibition at 25 mg/kg ([1]; po, 3 h) [%] | inhibition at 50 mg/kg ([1]; po, 3 h) [%] | inhibition at 100 mg/kg ([1]; po, 3 h) [%] | LD50 at 24 h (in vivo) [mg/kg] | inhibition at 5 mg/kg ([2]; po, 3 h) [%] | inhibition at 12.5 mg/kg ([2]; po, 3 h) [%] | inhibition at 25 mg/kg ([2]; po, 3 h) [%] | inhibition at 50 mg/kg ([2]; po, 3 h) [%] | inhibition at 5 mg/kg [1, 8] [%] | inhibition at 12.5 mg/kg [1, 9] [%] | inhibition at 25 mg/kg [1, 10] [%] | inhibition at 50 mg/kg [1, 11] [%] | inhibition at 100 mg/kg [1, 12] [%] | inhibition at 5 mg/kg [2, 8] [%] | inhibition at 12.5 mg/kg [2, 9] [%] | inhibition at 25 mg/kg [2, 10] [%] | inhibition at 50 mg/kg [2, 11] [%] | inhibition at 100 mg/kg [2, 12] [%] | also measured
O=C1C=C2CN(Cc3ccccc3)CCC2S1 (stereo not drawn) [Derivative 2, 5-Benzyl-5,6,7,7a-tetrahydro-4H-thieno[3,2-c]-pyridin-2-one] | 16.5 | 44.2 | 85.8 | 87 | 87.8 | 116 | 47.8 | 82.6 | 82.9 | 83.7 |  |  |  |  |  |  |  |  |  |  | inhibition at 100 mg/kg ([2]; po, 3 h): 83.7%
O=C1C=C2CN(Cc3ccc(Cl)cc3)CCC2S1 (stereo not drawn) [Derivative 3, 5-(p-Chlorobenzyl)-5,6,7,7a-tetrahydro-4H-thieno-[3,2-c]pyridin-2-one] | 17.4 | 44.9 | 86.5 | 87.2 | 88.1 | 125 | 48.1 | 82.4 | 83 | 83.5 |  |  |  |  |  |  |  |  |  |  | Average weight of the thrombi (experimental thrombosis; [4]): 26.72 mg; Average weight of the thrombi (experimental thrombosis; [5]): 12.04 mg; Average weight of the thrombi (experimental thrombosis; [6]): 5.96 mg; Average weight of the thrombi (experimental thrombosis; [7]): 4.62 mg; inhibition at 100 mg/kg ([2]; po, 3 h): 83.6%
Cc1ccccc1CN1CCC2SC(=O)C=C2C1 (stereo not drawn) [Derivative 4, 5-(o-Methylbenzyl)-5,6,7,7a-tetrahydro-4H-thieno-[3,2-c]pyridin-2-one] | 17.1 | 45.2 | 85.9 | 88.1 | 88.2 | 110 | 48 | 81.9 | 82.1 | 82.8 |  |  |  |  |  |  |  |  |  |  | inhibition at 100 mg/kg ([2]; po, 3 h): 82.9%
CC(c1ccccc1Cl)N1CCC2SC(=O)C=C2C1 (stereo not drawn) [Derivative 5, 5-[1-(2-Chlorophenyl)-ethyl]-5,6,7,7a-tetrahydro-4H-thieno[3,2-c]pyridin-2-one] |  |  |  |  |  | 286 |  |  |  |  | 17 | 44.8 | 86.1 | 87.8 | 88 | 48.4 | 82 | 82.4 | 83.2 | 83.5 | 
CCC(c1ccccc1Cl)N1CCC2SC(=O)C=C2C1 (stereo not drawn) [Derivative 6, 5-[1-(2-Chlorophenyl)-propyl]-5,6,7,7a-tetrahydro-4H-thieno[3,2-c]pyridin-2-one] |  |  |  |  |  | 121 |  |  |  |  | 16.8 | 44.4 | 85.7 | 89 | 89.2 | 48.7 | 83 | 83.4 | 83.9 | 83.9 | 
N#Cc1ccccc1CN1CCC2SC(=O)C=C2C1 (stereo not drawn) [Derivative 7, 5-(o-Cyanobenzyl)-5,6,7,7a-tetrahydro-4H-thieno[3,2-c]-pyridin-2-one] |  |  |  |  |  | 254 |  |  |  |  | 16.5 | 44.5 | 86.2 | 87.9 | 89.4 | 47.6 | 82.7 | 82.9 | 83.1 | 83.2 | 
O=C1C=C2CN(Cc3ccccc3[N+](=O)[O-])CCC2S1 (stereo not drawn) [Derivative 8, 5-(o-Nitrobenzyl)-5,6,7,7a-tetrahydro-4H-thieno[3,2-c]-pyridin-2-one] |  |  |  |  |  | 278 |  |  |  |  | 17 | 44.6 | 86.2 | 88.2 | 88.7 | 48 | 82.8 | 83.1 | 83.3 | 83.4 | 
O=C1C=C2CN(Cc3ccccc3Br)CCC2S1 (stereo not drawn) [Derivative 9, 5-(o-Bromobenzyl)-5,6,7,7a-tetrahydro-4H-thieno[3,2-c]-pyridin-2-one] | 17.2 | 44.9 | 86.4 | 87.6 | 88.6 | 118 | 48.4 | 83.1 | 83.4 | 83.7 |  |  |  |  |  |  |  |  |  |  | inhibition at 100 mg/kg ([2]; po, 3 h): 84%
Clc1ccccc1CN1CCc2sccc2C1 [Reference compound A, 5-(2-chlorobenzyl)-4,5,6,7-tetrahydrothieno[3,2-c]pyridine, reference compound] |  |  |  |  |  |  |  |  |  |  | 0 | 0 | 40.9 | 46.8 | 80.1 | 0 | 0 | 0 | 34.6 | 63.2 | Average weight of the thrombi (experimental thrombosis; [4]): 30.45 mg; Average weight of the thrombi (experimental thrombosis; [5]): 30.09 mg; Average weight of the thrombi (experimental thrombosis; [6]): 28.86 mg; Average weight of the thrombi (experimental thrombosis; [7]): 23.04 mg; Average weight of the thrombi (experimental thrombosis; 200 mg/kg oral, 48, 24 and 2 hours before): 23.13 mg; anti-thrombosis action (experimental thrombosis; even at high doses): no anti-thrombosis action whatsoever; percentage inhibition as a function of time (platelet aggregation, ADP) ([3]; 10 minutes after 100 mg/kg intraperitoneal in propylene glycol): 22%; percentage inhibition as a function of time (platelet aggregation, ADP) ([3]; 60 minutes after 100 mg/kg intraperitoneal in propylene glycol): 39%; minimal effective dose ([2]; 3 h): 100 mg/kg
N#Cc1ccccc1CN1CCc2sccc2C1 [Reference compound B, 5-(2-cyanobenzyl)-4,5,6,7-tetrahydrothieno[3,2-c]pyridine, reference compound] |  |  |  |  |  | 45 |  |  |  |  | 0 | 0 | 38.5 | 51.2 | 78.8 | 0 | 0 | 0 | 35.5 | 63.8 | minimal effective dose ([2]; 3 h): 100 mg/kg
